{"source": "patent US20240197712A1", "about": "“TGF-BETA INHIBITION FOR IMMUNODEFICIENCY VIRUS REACTIVATION FROM LATENCY, ENHANCEMENT OF IMMUNODEFICIENCY VIRUS-SPECIFIC RESPONSES AND IMMUNODEFICIENCY VIRUS CURE” (Northwestern University, priority 2022, published 2024)", "key": {"[1]": {"tested_on": "PBMC from aviremic, ART-treated PLWH", "experiment": "Modified quantitative viral outgrowth assay (qVOA) with LRA", "assay_type": "cell-based, human", "excerpt": "Considering that TGF-β is present in FBS, used to supplement PBMC and T cell cultures, and that PBMC from people living with HIV-1 release TGF-β in culture supernatants (56-58), we hypothesized that blocking TGF-β while reversing HIV-1 latency ex vivo from PBMC of ART-treated, aviremic individuals may lead to higher frequency of HIV-1 reactivation than in untreated cultures. To test this hypothesis, we used a modified version of the classical quantitative viral outgrowth assay (qVOA) (59). We used whole PBMC to assess potential latency reactivation from any HIV-1-infected circulating cell and not only from resting CD4+ T cells (FIG. 6A). PBMC from two different sets of aviremic, ART-treated donors (Table 1) were activated with PMA (at 100 ng/ml or 10 ng/ml) and with Vorinostat (SAHA, at 1 μM) in presence of T20 and galunisertib (1 μM) or mock solution. […] Infectious unit per million cells (IUPM) were calculated based on the number of infected wells as determined by p24 ELISA (FIG. 6A). […]\nPBMC were thawed and cultured in RPMI 10% FBS at 3×10^6/ml. […] 50 μl of supernatant was collected after 7, 14 and 21 days of co-culture and monitored for p24 presence by p24 ELISA (PerkinElmer). IUPM were calculated based on the number of positive wells using the IUPM calculator provided by Dr. Siliciano (76). […]"}, "SIV-env": {"tested_on": "SIV-env", "experiment": "ImmunoPET/CT with 64Cu-DOTA-F(ab')2 p7D3 anti SIV-env probe, 1-2 weeks galunisertib", "assay_type": "in vivo, rhesus macaques", "method": "PET/CT imaging with a 64Cu-DOTA-F(ab′)2 p7D3 anti SIV-env probe were performed before Galunisertib treatment, after 7 days in all macaques and after 14 days in the macaques that were treated for 14 days. Briefly, a solution of 64Cu was incubated with DOTA-F(ab′)2 p7D3 antibody reconstituted with 50 μL of IM NH40Ac, pH of 5.5 and incubated for 1 hour at 37° C.; then purified by ultrafiltration in a desalting spin column (10K MWCO, Thermo Fisher) and finally eluted with sterile saline prior to injection. The labeled probe was injected IV via catheters, 24 h before PET-CT scanning. For taking PET/CT scans, the macaques were sedated with ketamine HCL (10 mg/kg), and/or telazol (4-8 mg/kg) via intramuscular and supplemented with ketamine (5 mg/Kg) as needed to perform the procedure. The macaque's body was immobilized in dorsal recumbency on the scanner table and PET/CT scans were acquired using a Philips Gemini TF64 PET/CT scanner. […]\nPET Image analysis was performed using the MIM software. PETCT fusions were generated scaled according to calculated Standardized Uptake Values. […]\nRegions of interest (ROI) were isolated using a combination of the Region Grow function and manual contouring on a representative scan. […] The signals of the whole body as well as within these ROI were quantified, and Max, Mean, and Total SUVs were calculated for further analyses. […]"}, "SIVmac239M2": {"tested_on": "SIVmac239M2", "experiment": "SIV-IPDA intact and total provirus in PBMC", "assay_type": "in vivo, rhesus macaques", "method": "To determine the impact of galunsiertib on SIV reservoir, CA-vDNA was measured in PBMC, colorectal biopsies and lymph nodes (LN). […] In the gut and LN (right axillary), decreases range from a Log to ⅓ of a Log (gut: median 0.77; range:0.33-0.94 folds LN: median: 0.93; range:0.33-0.98 folds decrease). In the PBMC the decrease was slightly less pronounced with a median half Log decrease ([…] median: 0.58; range 0.28-0.88 folds decrease). However, the comparison for the PBMCs was between week ˜35 and week ˜45 (end of cycle 3, AC3) instead of the end of all 4 cycles, because a snap frozen pellet was not available at the end of cycle 4 for PBMCs. The SIV reservoir in PBMCs was also monitored by SIV-IPDA comparing before cycle 1 (BC1) to the end of cycle 4 (AC4). […] Intact provirus declined similarly to the CA-vDNA with a median of half Log (median: 0.53; range:0-0.71 folds decrease).\nBlood was collected in EDTA tubes and plasma was separated by density gradient centrifugation and used for the determination of plasma VL by SIVgag qRT-PCR at NIRC or at Leidos (Quantitative Molecular Diagnostics Core, AIDS and Cancer Virus Program Frederick National Laboratory). Tissue VL from snap frozen PBMC pellets, colorectal biopsies and LN FNA were performed as described in (77). SIV-TILDA was performed on freshly stored PBMC before cycle 1 and at the end of cycle 4 of galunisertib by Accelevir, Baltimore, MD."}}, "data": [{"smiles": "Cc1cccc(-c2nn3c(c2-c2ccnc4ccc(C(N)=O)cc24)CCC3)n1", "note": "[galunisertib, Galunisertib]", "values": [{"measurement": "frequency of latency reactivation events (IUPM)", "setting": "[1]; galunisertib 1 μM vs mock, PMA 100 or 10 ng/ml or Vorinostat 1 μM", "value": "significantly higher frequency"}, {"measurement": "vRNA in supernatant after PMA stimulation", "setting": "[1]; galunisertib-treated PBMC vs mock treated", "value": "higher levels of vRNA"}, {"measurement": "macaques with clear extensive viral reactivation in the gut (PET signal)", "setting": "SIV-env; day 7 or 14 of treatment vs baseline", "value": "3 of the 7"}, {"measurement": "macaques with increased SUVtot in PET/CT images in gut and lymph nodes", "setting": "SIV-env; oral galunisertib, aviremic long-term ART-treated macaques", "value": "5 out of 7"}, {"measurement": "decrease of intact pro-virus in PBMC", "setting": "SIVmac239M2; BC1 (week 35 pi) to AC4 (week 49 pi), median", "value": 3, "unit": "fold"}, {"measurement": "intact provirus decline by SIV-IPDA, median", "setting": "SIVmac239M2; PBMC, BC1 vs AC4", "value": 0.53, "unit": "folds"}, {"measurement": "intact provirus decline by SIV-IPDA, range", "setting": "SIVmac239M2; PBMC, BC1 vs AC4", "value": "0-0.71 folds"}, {"measurement": "total and intact provirus by SIV-IPDA", "setting": "SIVmac239M2; PBMC, BC1 vs AC4", "value": "significant decreases"}]}]}
